Data published in patent US12037344B2, “NLRP3 modulators” (INNATE TUMOR IMMUNITY, INC., priority 2018, dated 2024).
Like-named read-outs stand apart in the source and are kept apart here.

Legend:
TLR7 = molecular target: T1, TLR7 (Homo sapiens, UniProt Q9NYK1); experiment: In vitro human TLR7 binding reporter assay (HEK-Blue, NF-kB/AP1-inducible SEAP); format: cell-based; details: read-out: TLR7 Agonist EC50
T1 construct: human HEK-Blue cells co-expressing a TLR7 or TLR8 gene
T1 sequence (Q9NYK1 27-1049): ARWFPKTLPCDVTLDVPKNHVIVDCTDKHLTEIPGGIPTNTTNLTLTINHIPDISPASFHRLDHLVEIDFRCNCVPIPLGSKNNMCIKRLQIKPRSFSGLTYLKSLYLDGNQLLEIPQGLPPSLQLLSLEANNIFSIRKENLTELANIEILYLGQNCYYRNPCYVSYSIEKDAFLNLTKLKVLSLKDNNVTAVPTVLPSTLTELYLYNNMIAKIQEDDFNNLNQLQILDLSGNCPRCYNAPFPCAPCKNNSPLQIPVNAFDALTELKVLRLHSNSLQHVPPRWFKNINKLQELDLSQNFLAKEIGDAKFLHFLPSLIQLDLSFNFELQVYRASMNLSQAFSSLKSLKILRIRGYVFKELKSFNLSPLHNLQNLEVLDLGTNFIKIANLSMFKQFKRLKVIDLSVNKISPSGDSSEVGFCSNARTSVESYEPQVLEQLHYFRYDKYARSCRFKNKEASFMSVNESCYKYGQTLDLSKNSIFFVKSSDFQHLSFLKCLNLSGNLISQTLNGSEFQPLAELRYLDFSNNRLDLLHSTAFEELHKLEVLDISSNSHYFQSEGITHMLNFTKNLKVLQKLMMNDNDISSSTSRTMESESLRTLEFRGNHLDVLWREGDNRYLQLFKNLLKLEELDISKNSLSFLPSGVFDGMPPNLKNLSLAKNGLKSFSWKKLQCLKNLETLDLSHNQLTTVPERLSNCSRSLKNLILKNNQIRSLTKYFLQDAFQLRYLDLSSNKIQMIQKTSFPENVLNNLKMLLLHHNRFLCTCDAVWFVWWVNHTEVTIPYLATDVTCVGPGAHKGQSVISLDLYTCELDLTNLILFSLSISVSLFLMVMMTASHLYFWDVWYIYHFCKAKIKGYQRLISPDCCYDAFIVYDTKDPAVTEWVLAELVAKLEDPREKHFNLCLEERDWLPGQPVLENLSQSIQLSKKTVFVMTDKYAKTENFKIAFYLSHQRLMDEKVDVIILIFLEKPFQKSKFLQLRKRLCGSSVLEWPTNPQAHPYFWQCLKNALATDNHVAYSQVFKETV
Method in brief: (§1)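 Cells are seeded and grown for 24 h. Compounds or DMSO are then added and incubated 18 h at 37 °C. Quanti-Blue is added, and SEAP is read after thirty minutes. EC50 values are normalized, with RLU from 50 μM reference standard setting 100% Ymax.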

TLR8 = molecular target: T2, TLR8 (Homo sapiens, UniProt Q9NR97); experiment: In vitro human TLR8 binding reporter assay (HEK-Blue, NF-kB/AP1-inducible SEAP); format: cell-based; details: read-out: TLR8 Agonist EC50
T2 construct: human HEK-Blue cells co-expressing a TLR7 or TLR8 gene
T2 sequence (Q9NR97 27-1041): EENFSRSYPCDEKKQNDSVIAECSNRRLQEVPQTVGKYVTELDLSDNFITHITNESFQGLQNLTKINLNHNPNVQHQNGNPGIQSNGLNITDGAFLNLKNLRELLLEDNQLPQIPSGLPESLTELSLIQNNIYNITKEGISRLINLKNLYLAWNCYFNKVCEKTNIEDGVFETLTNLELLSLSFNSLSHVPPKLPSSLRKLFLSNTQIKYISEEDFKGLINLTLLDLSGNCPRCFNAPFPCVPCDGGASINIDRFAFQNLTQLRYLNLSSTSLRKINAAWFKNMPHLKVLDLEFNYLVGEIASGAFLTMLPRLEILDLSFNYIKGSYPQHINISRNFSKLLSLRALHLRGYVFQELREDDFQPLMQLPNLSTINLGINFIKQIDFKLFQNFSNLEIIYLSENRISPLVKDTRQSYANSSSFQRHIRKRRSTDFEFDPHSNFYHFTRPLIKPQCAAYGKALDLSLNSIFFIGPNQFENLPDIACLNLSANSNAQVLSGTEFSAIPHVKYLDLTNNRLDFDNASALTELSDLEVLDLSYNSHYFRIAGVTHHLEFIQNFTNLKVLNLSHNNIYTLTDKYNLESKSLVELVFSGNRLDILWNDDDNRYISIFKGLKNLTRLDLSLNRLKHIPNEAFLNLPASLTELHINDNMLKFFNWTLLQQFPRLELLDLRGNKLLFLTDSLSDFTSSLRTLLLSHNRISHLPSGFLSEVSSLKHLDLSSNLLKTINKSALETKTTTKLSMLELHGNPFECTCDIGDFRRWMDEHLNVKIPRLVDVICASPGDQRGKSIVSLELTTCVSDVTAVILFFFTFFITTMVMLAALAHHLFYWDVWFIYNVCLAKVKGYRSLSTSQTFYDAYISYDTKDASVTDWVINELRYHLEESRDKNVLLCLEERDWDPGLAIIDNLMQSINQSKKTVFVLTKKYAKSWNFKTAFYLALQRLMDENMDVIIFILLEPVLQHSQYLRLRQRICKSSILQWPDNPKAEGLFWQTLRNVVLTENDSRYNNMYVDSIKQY
Method in brief: as §1

THP-1 cells = experiment: Measurement of IL-1β production, hTRF protocol (second alternative procedure), THP-1 cells; format: cell-based, human; details: Homo sapiens
Method in brief: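 Compounds, dilution series starting at a final 10 μM, were incubated 2 hours at 37° C with PMA-differentiated THP-1 cells (50 ng/ml overnight; 50,000 cells/well, 2% FBS RPMI). Released IL-1β quantified in supernatant by hTRF kit with 1:40 antibody dilution, 4° C overnight, 665/615 nm ratio.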

[1] = THP-1, IL-1β production, human, read-out: NLRP3 hILIB EC50
[2] = THP-1, IL-1β production, human cells, read-out: NLRP3 hILIB EC50

CC(=O)N(C)CCn1cc2c(n1)c(N)nc1cc(-c3cc[nH]n3)ccc12 [Example 119, N-{2-[4-amino-7-(1H-pyrazol-3-yl)-2H-pyrazolo[3,4-c]quinolin-2-yl]ethyl}-N-methylacetamide]
EC50 (TLR7; activity range class): > 100 µM
EC50 (TLR8; activity range class): > 100 µM
EC50 (THP-1 cells; [1]): 9.02 µM

C[C@H](CO)Cn1cc2c(N)nc3cc(-c4cc[nH]n4)ccc3c2n1 [Example 308]
EC50 (TLR7; activity range class): > 100 µM
EC50 (TLR8; activity range class): > 100 µM
EC50 (THP-1 cells; [1]): 0.41 µM

Nc1nc2cc(-c3ccn[nH]3)ccc2c2[nH]c(CCNC(=O)c3ccccn3)cc12 [Example 155, N-[2-[4-amino-7-(1H-pyrazol-5-yl)-1H-pyrrolo[3,2-c]quinolin-2-yl]ethyl]pyridine-2-carboxamide]
EC50 (TLR7; activity range class): > 100 µM
EC50 (TLR8; activity range class): > 100 µM
EC50 (THP-1 cells; [1]): 0.01 µM

Nc1nc2cc(-c3cc[nH]n3)ccc2c2c1cnn2C1CCOCC1 [Example 311]
EC50 (TLR7; activity range class): > 100 µM
EC50 (TLR8; activity range class): > 100 µM
EC50 (THP-1 cells; [1]): 0.71 µM

CN(C)C(=O)NCCn1cc2c(n1)c(N)nc1cc(-c3cc[nH]n3)ccc12 [Example 116, 1-{2-[4-amino-7-(1H-pyrazol-3-yl)-2H-pyrazolo[3,4-c]quinolin-2-yl]ethyl}-3,3-dimethylurea]
EC50 (TLR7; activity range class): > 100 µM
EC50 (TLR8; activity range class): > 100 µM
EC50 (THP-1 cells; THP-1, read-out: NLRP3 hILIB EC50): 7.43 µM

Nc1nc2cc(-c3cc[nH]n3)ccc2c2cn(CCNC(=O)c3ccccc3F)nc12 [Example 74]
EC50 (TLR7; activity range class): > 100 µM
EC50 (TLR8; activity range class): 20 to 100 µM
EC50 (THP-1 cells; [1]): 0.25 µM

CN1CCN(C(=O)Cn2cc3c(n2)c(N)nc2cc(-c4cc[nH]n4)ccc23)CC1 [Example 552]
EC50 (TLR7; activity range): > 100 µM
EC50 (TLR8; activity range): > 100 µM
EC50 (THP-1 cells; [2]): 9.89 µM

Nc1nc2cc(-c3cc[nH]n3)ccc2c2cn(CCNC(=O)c3cccc(F)n3)nc12 [Example 55]
EC50 (TLR7; activity range class): 20 to 100 µM
EC50 (TLR8; activity range class): 20 to 100 µM
EC50 (THP-1 cells; [1]): 0.39 µM

Nc1nc2cc(-c3cc[nH]n3)ccc2c2[nH]c(CN[C@H]3CC[C@@H](CO)C3)cc12 [Example 478]
EC50 (TLR7; activity range): > 100 µM
EC50 (TLR8; activity range): > 100 µM
EC50 (THP-1 cells; [2]): 0.35 µM

CC(O)Cn1cc2c(n1)c(N)nc1cc(-c3ccn[nH]3)ccc12 (stereo not drawn) [Example 451]
EC50 (TLR7; activity range): > 100 µM
EC50 (TLR8; activity range): > 100 µM
EC50 (THP-1 cells; [2]): 1.26 µM

COC1CCN(CCn2ncc3c(N)nc4cc(-c5cc[nH]n5)ccc4c32)C1 (stereo not drawn) [Example 434]
EC50 (TLR7; activity range): > 100 µM
EC50 (TLR8; activity range): > 100 µM
EC50 (THP-1 cells; [2]): 4.35 µM

Nc1nc2cc(-c3cc[nH]n3)ccc2c2cn(CCc3c[nH]cn3)nc12 [Example 175]
EC50 (TLR7; activity range class): > 100 µM
EC50 (TLR8; activity range class): > 100 µM
EC50 (THP-1 cells; [1]): 0.29 µM

Nc1nc2cc(-c3cc[nH]n3)ccc2c2nn(CCc3c[nH]cn3)cc12 [Example 361]
EC50 (TLR7; activity range class): > 100 µM
EC50 (TLR8; activity range class): > 100 µM
EC50 (THP-1 cells; [1]): 0.19 µM

Nc1nc2cc(-n3cccn3)ccc2c2cn(CCN3CCOCC3)nc12 [Example 13]
EC50 (TLR7; activity range class): 20 to 100 µM
EC50 (TLR8; activity range class): > 100 µM
EC50 (THP-1 cells; [1]): 1.78 µM

Cc1nnc(Cn2ncc3c(N)nc4cc(-c5cc[nH]n5)ccc4c32)o1 [Example 244]
EC50 (TLR7; activity range class): > 100 µM
EC50 (TLR8; activity range class): > 100 µM
EC50 (THP-1 cells; [1]): 1.8 µM

Nc1nc2cc(-c3cc[nH]n3)ccc2c2nn(CCC(=O)N3CC(F)(F)C3)cc12 [Example 503]
EC50 (TLR7; activity range): > 100 µM
EC50 (TLR8; activity range): > 100 µM
EC50 (THP-1 cells; [2]): 2.58 µM

Nc1nc2cc(-c3cc[nH]n3)ccc2c2[nH]c(CCNC(=O)C3CCCCO3)cc12 (stereo not drawn) [Example 415]
EC50 (TLR7; activity range): > 100 µM
EC50 (TLR8; activity range): > 100 µM
EC50 (THP-1 cells; [2]): 1.89 µM

COc1ccccc1C(=O)NCCn1cc2c(n1)c(N)nc1cc(-c3cc[nH]n3)ccc12 [Example 81]
EC50 (TLR7; activity range class): > 100 µM
EC50 (TLR8; activity range class): 20 to 100 µM
EC50 (THP-1 cells; [1]): 0.68 µM

CC(C)(Cn1cc2c(N)nc3cc(-c4ccn[nH]4)ccc3c2n1)C(=O)N1CC(O)C1 [Example 597]
EC50 (TLR7; activity range): > 100 µM
EC50 (TLR8; activity range): > 100 µM
EC50 (THP-1 cells; [2]): 8.7 µM

CCS(=O)(=O)CCn1cc2c(n1)c(N)nc1cc(-c3cc[nH]n3)ccc12 [Example 526]
EC50 (TLR7; activity range): > 100 µM
EC50 (TLR8; activity range): > 100 µM
EC50 (THP-1 cells; [2]): 0.7 µM

Cc1nc(C)c(C(=O)NCCn2cc3c(n2)c(N)nc2cc(-c4cc[nH]n4)ccc23)o1 [Example 46]
EC50 (TLR7; activity range class): > 100 µM
EC50 (TLR8; activity range class): > 100 µM
EC50 (THP-1 cells; [1]): 4.19 µM

Nc1nc2cc(-n3cccn3)ccc2c2cn(CCN3CCCC3=O)nc12 [Example 11]
EC50 (TLR7; activity range class): 20 to 100 µM
EC50 (TLR8; activity range class): > 100 µM
EC50 (THP-1 cells; [1]): 2.09 µM

COc1cccc(C(=O)NCCn2cc3c(n2)c(N)nc2cc(-c4cc[nH]n4)ccc23)c1 [Example 79]
EC50 (TLR7; activity range class): > 100 µM
EC50 (TLR8; activity range class): > 100 µM
EC50 (THP-1 cells; [1]): 1.59 µM

Nc1nc2cc(-n3cccn3)ccc2c2nn(CCO)cc12 [Example 249, 2-(4-amino-7-(1H-pyrazol-1-yl)-2H-pyrazolo[4,3-c]quinolin-2-yl)ethan-1-ol]
EC50 (TLR7; activity range class): > 100 µM
EC50 (TLR8; activity range class): > 100 µM
EC50 (THP-1 cells; [1]): 0.64 µM

COc1ccc(C(=O)NCCn2cc3c(N)nc4cc(-c5cc[nH]n5)ccc4c3n2)nc1 [Example 202]
EC50 (TLR7; activity range class): > 100 µM
EC50 (TLR8; activity range class): > 100 µM
EC50 (THP-1 cells; [1]): 0.66 µM

Cc1cc(Cn2cc3c(N)nc4cc(-c5cc[nH]n5)ccc4c3n2)no1 [Example 226]
EC50 (TLR7; activity range class): > 100 µM
EC50 (TLR8; activity range class): > 100 µM
EC50 (THP-1 cells; [1]): 0.44 µM
